Read-outs that look alike come from different tables or passages of the source.
Key:
[1] = system: panel of approximately 60 cancer cell lines; design: method as in earlier work; conditions: standard drugs; read-out: GI50 MG_MID60; cited from earlier work
Leukemia subpanel = system: Leukemia subpanel; design: method as in earlier work; conditions: standard drugs, read-out: GI50 MG_MID; cited from earlier work
CNS cancer subpanel = system: CNS cancer subpanel; design: method as in earlier work; conditions: standard drugs, read-out: GI50 MG_MID; cited from earlier work
CCRF-CEM (Leukemia) = system: CCRF-CEM (Leukemia); design: method as in earlier work; conditions: cited from earlier work
MOLT-4 (Leukemia) = system: MOLT-4 (Leukemia); design: method as in earlier work; conditions: cited from earlier work
RPMI-8226 (Leukemia) = system: RPMI-8226 (Leukemia); design: method as in earlier work; conditions: cited from earlier work
SR (Leukemia) [2] = system: SR (Leukemia); design: method as in earlier work; conditions: cited from earlier work
[3] = system: A549/ATCC (NSC lung cancer); design: method as in earlier work; conditions: cited from earlier work
EKVX (NSC lung cancer) = system: EKVX (NSC lung cancer); design: method as in earlier work; conditions: cited from earlier work
HOP-62 (NSC lung cancer) = system: HOP-62 (NSC lung cancer); design: method as in earlier work; conditions: cited from earlier work
HOP-92 (NSC lung cancer) = system: HOP-92 (NSC lung cancer); design: method as in earlier work; conditions: cited from earlier work
[4] = system: NCI-H226 (NSC lung cancer); design: method as in earlier work; conditions: cited from earlier work
[5] = system: NCI-H23 (NSC lung cancer); design: method as in earlier work; conditions: cited from earlier work
[6] = system: NCI-H460 (NSC lung cancer); design: method as in earlier work; conditions: cited from earlier work
[7] = system: NCI-H522 (NSC lung cancer); design: method as in earlier work; conditions: cited from earlier work
HCT-116 (Colon cancer) = system: HCT-116 (Colon cancer); design: method as in earlier work; conditions: cited from earlier work
SW-620 (Colon cancer) = system: SW-620 (Colon cancer); design: method as in earlier work; conditions: cited from earlier work
SF-268 (CNS cancer) = system: SF-268 (CNS cancer); design: method as in earlier work; conditions: cited from earlier work
SF-295 (CNS cancer) = system: SF-295 (CNS cancer); design: method as in earlier work; conditions: cited from earlier work
SNB-19 (CNS cancer) = system: SNB-19 (CNS cancer); design: method as in earlier work; conditions: cited from earlier work
SNB-75 (CNS cancer) = system: SNB-75 (CNS cancer); design: method as in earlier work; conditions: cited from earlier work
U251 (CNS cancer) = system: U251 (CNS cancer); design: method as in earlier work; conditions: cited from earlier work
LOX IMVI (Melanoma) = system: LOX IMVI (Melanoma); design: method as in earlier work; conditions: cited from earlier work
SK-MEL-5 (Melanoma) = system: SK-MEL-5 (Melanoma); design: method as in earlier work; conditions: cited from earlier work
OVCAR-8 (Ovarian cancer) = system: OVCAR-8 (Ovarian cancer); design: method as in earlier work; conditions: cited from earlier work
A498 (Renal cancer) = system: A498 (Renal cancer); design: method as in earlier work; conditions: cited from earlier work
ACHN (Renal cancer) = system: ACHN (Renal cancer); design: method as in earlier work; conditions: cited from earlier work
RXF 393 (Renal cancer) = system: RXF 393 (Renal cancer); design: method as in earlier work; conditions: cited from earlier work
SN12C (Renal cancer) = system: SN12C (Renal cancer); design: method as in earlier work; conditions: cited from earlier work
MCF7 (Breast cancer) = system: MCF7 (Breast cancer); design: method as in earlier work; conditions: cited from earlier work
[8] = system: MDA-MB-31/ATCC (Breast cancer); design: method as in earlier work; conditions: cited from earlier work
T-47D (Breast cancer) = system: T-47D (Breast cancer); design: method as in earlier work; conditions: cited from earlier work
[9] = system: MDA-MB-468 (Breast cancer); design: method as in earlier work; conditions: cited from earlier work
[10] = system: A2780 (ovarian carcinoma); assay: SRB cytotoxicity assay, 72 h; type: cell-based, human; conditions: Homo sapiens; A2780, 72 h, cut-off 30 µM; read-out: EC50
Method: (§1) The cytotoxicity of compounds 1–20 was evaluated by means of a colorimetric sulforhodamine B (SRB) assay. For all compounds, the EC50 values were determined for the human tumor cell lines A375 (malignant melanoma), HT29 (colorectal carcinoma), MCF-7 (breast carcinoma), A2780 (ovarian carcinoma), FaDu (hypopharyngeal carcinoma), and NIH 3T3 (non-malignant mouse fibroblasts).
(§2) In short, exponentially growing cells were seeded into 96-well plates on day 0 at the appropriate cell densities to prevent confluence of the cells during the period of experiment. After 24 h, the cells were treated with serial dilutions of the compounds (0–30 µM) for 72 h. The final concentration of DMSO never exceeded 0.5%, which was non-toxic to the cells. After a 72 h treatment, the supernatant medium from the 96-well plates was discarded, and the cells were fixed with 10% TCA. For a thorough fixation, the plates were allowed to rest at 4 °C. After fixation, the cells were washed in a strip washer. The washing was done four times with water using alternate dispensing and aspiration procedures. The plates were then dyed with 100 µL of 0.4% SRB for about 20 min. After dying, the plates were washed with 1% acetic acid to remove the excess of the dye and allowed to air-dry overnight. Tris base solution (200 µL, 10 mM) was added to each well and absorbance was measured at λ = 570 nm (using a 96 well plate reader, Tecan Spectra, Crailsheim, Germany). The percentages of surviving cells relative to untreated controls were determined.

[11] = system: A375 (malignant melanoma); assay: SRB cytotoxicity assay, 72 h; type: cell-based, human; conditions: Homo sapiens, A-375, 72 h, A375, 72 h, cut-off 30 µM; read-out: EC50
Method: as §1, §2

[12] = system: FaDu (hypopharyngeal carcinoma); assay: SRB cytotoxicity assay, 72 h; type: cell-based, human; conditions: Homo sapiens, cut-off 30 µM, read-out: EC50
Method: as §1, §2

[13] = system: HT29 (colorectal carcinoma); assay: SRB cytotoxicity assay, 72 h; type: cell-based, human; conditions: Homo sapiens, HT-29; HT29, 72 h, cut-off 30 µM; read-out: EC50
Method: as §1, §2

MCF-7 (breast carcinoma) = assay: SRB cytotoxicity assay, 72 h; type: cell-based, human; conditions: Homo sapiens, MCF7; MCF-7, 72 h, cut-off 30 µM; read-out: EC50
Method: as §1, §2

[14] = system: NIH 3T3 (non-malignant mouse fibroblasts); assay: SRB cytotoxicity assay, 72 h; type: cell-based; conditions: Mus musculus, NIH3T3; NIH 3T3, 72 h, cut-off 30 µM; read-out: EC50
Method: as §1, §2

SR (Leukemia) [15] = assay: NCI-60 screen (SRB, 48 h); type: cell-based; conditions: 1 dose 10 µM
[16] = system: panel of approximately 60 cancer cell lines; assay: NCI-60 screen (SRB, 48 h), full panel; conditions: for Positive Cytostatic Effect (cell lines with percent growth 0 to 50 / total) / Positive Cytotoxic Effect (cell lines with percent growth < 0 / total) / number of cancer cell lines the compound was active against: 1 dose 10 µM; for activity at 10 µM: Homo sapiens, 48 h
CAKI-1 (Renal cancer) = assay: NCI-60 screen (SRB, 48 h); conditions: CAKI-1, 1 dose 10 µM

For `COc1cccc2c1C(=O)c1c(O)c3c(c(O)c1C2=O)C[C@@](O)(C(=O)CO)C[C@@H]3O[C@H]1C[C@H](N)[C@H](O)[C@H](C)O1` [DRB, doxorubicin], the GI50 [1] is listed as 380 nM, the GI50 (Leukemia subpanel) is listed as 80 nM and the GI50 (CNS cancer subpanel) is listed as 80 nM. The GI50 (CCRF-CEM (Leukemia)) was 80 nM, the GI50 (MOLT-4 (Leukemia)) was 30 nM and the GI50 (RPMI-8226 (Leukemia)) was 80 nM. For the same molecule, the GI50 (SR (Leukemia) [2]) was 30 nM, the GI50 [3] was 60 nM and the GI50 (EKVX (NSC lung cancer)) was 410 nM. The GI50 (HOP-62 (NSC lung cancer)) was 70 nM, the GI50 (HOP-92 (NSC lung cancer)) was 100 nM and the GI50 [4] was 50 nM. The GI50 [5] was 150 nM, the GI50 [6] was 20 nM and the GI50 [7] was 30 nM. For the same molecule, the GI50 (HCT-116 (Colon cancer)) was 80 nM, the GI50 (SW-620 (Colon cancer)) was 90 nM and the GI50 (SF-268 (CNS cancer)) was 100 nM. For the same molecule, the GI50 (SF-295 (CNS cancer)) was 100 nM, the GI50 (SNB-19 (CNS cancer)) was 40 nM and the GI50 (SNB-75 (CNS cancer)) was 70 nM. The GI50 (U251 (CNS cancer)) was 40 nM, the GI50 (LOX IMVI (Melanoma)) was 70 nM and the GI50 (SK-MEL-5 (Melanoma)) was 80 nM. The GI50 (OVCAR-8 (Ovarian cancer)) was 100 nM, the GI50 (A498 (Renal cancer)) was 100 nM and the GI50 (ACHN (Renal cancer)) was 80 nM. For the same molecule, the GI50 (RXF 393 (Renal cancer)) was 100 nM, the GI50 (SN12C (Renal cancer)) was 70 nM and the GI50 (MCF7 (Breast cancer)) was 30 nM. The GI50 [8] was 510 nM, the GI50 (T-47D (Breast cancer)) was 60 nM and the GI50 [9] was 50 nM.
`C=C(C)[C@@H]1CC[C@]2(C)[C@H](CC=C3[C@@H]4CC(C)(C)CC[C@]4(CO)CC[C@]32C)[C@@]1(C)CCCN` [Compound 18] showed an EC50 [10] of 4000 ± 200 nM, an EC50 [11] of 3380 ± 200 nM and an EC50 [12] of 3340 ± 300 nM. For the same molecule, the EC50 [13] was 1720 ± 200 nM, the EC50 (MCF-7 (breast carcinoma)) was 2650 ± 200 nM and the EC50 [14] was 4020 ± 700 nM.
Work on `CC1(C)CC[C@]2(C(=O)NC(CO)Cc3ccccc3)CC[C@]3(C)C(=CC[C@@H]4[C@@]5(C)CCCNC(C)(C)[C@@H]5CC[C@]43C)[C@@H]2C1` (stereo partly drawn) [Compound 13] yielded an EC50 [10] of 4150 ± 200 nM, an EC50 [11] of 3080 ± 100 nM and an EC50 [12] of 3790 ± 300 nM. The EC50 [13] was 2070 ± 100 nM, the EC50 (MCF-7 (breast carcinoma)) was 2820 ± 300 nM and the EC50 [14] was 3080 ± 300 nM. The “Growth % of the Most Sensitive Cell Lines” value (SR (Leukemia) [15]) was −5.95%, the “Positive Cytostatic Effect (cell lines with percent growth 0 to 50 / total)” value [16] was 10/60 and the “Positive Cytotoxic Effect (cell lines with percent growth < 0 / total)” value [16] was 1/60. For the same molecule, the “number of cancer cell lines the compound was active against” value [16] was 6 cell lines, the activity at 10 µM ([16]; read-out: Mean Growth, %) was 74.9% and the activity at 10 µM ([16]; read-out: Range of Growth, %) was -5.95 to 107%.
Molecule `CC1(C)NCCC[C@]2(C)[C@H]3CC(=O)[C@H]4[C@@H]5C[C@@](C)(CO)CC[C@]5(C)CC[C@@]4(C)[C@]3(C)CC[C@@H]12` [Compound 17] has an EC50 [10] of 9190 ± 500 nM, an EC50 [11] of 6350 ± 500 nM and an EC50 [12] of 6360 ± 1800 nM. It also gave an EC50 [13] of 5010 ± 800 nM, an EC50 (MCF-7 (breast carcinoma)) of 5550 ± 600 nM and an EC50 [14] of 9870 ± 1300 nM. For the same molecule, the “Growth % of the Most Sensitive Cell Lines” value (CAKI-1 (Renal cancer)) was 51.57%, the “Positive Cytostatic Effect (cell lines with percent growth 0 to 50 / total)” value [16] was 0/59 and the “Positive Cytotoxic Effect (cell lines with percent growth < 0 / total)” value [16] was 0/59. For the same molecule, the “number of cancer cell lines the compound was active against” value [16] was “complete loss of cytotoxic activity”, the activity at 10 µM ([16]; read-out: Mean Growth, %) was 95.5% and the activity at 10 µM ([16]; read-out: Range of Growth, %) was 51.6 to 118%.

Reference: publication PMC7914897, “Cytotoxic Potential of a-Azepano- and 3-Amino-3,4-SeCo-Triterpenoids” (International Journal of Molecular Sciences, 2021)
